Test results reported in US8569343B2, “Oligomer-opioid agonist conjugates” (Nektar Therapeutics, priority 2007, dated 2013).

What follows are molecules tested against recombinant human delta opioid receptor (Homo sapiens, UniProt P41143) (assay: not given). Conditions: GTP-γS binding, screened up to 10 μM in agonist and antagonist mode.
recombinant human delta opioid receptor, sequence (P41143 whole entry): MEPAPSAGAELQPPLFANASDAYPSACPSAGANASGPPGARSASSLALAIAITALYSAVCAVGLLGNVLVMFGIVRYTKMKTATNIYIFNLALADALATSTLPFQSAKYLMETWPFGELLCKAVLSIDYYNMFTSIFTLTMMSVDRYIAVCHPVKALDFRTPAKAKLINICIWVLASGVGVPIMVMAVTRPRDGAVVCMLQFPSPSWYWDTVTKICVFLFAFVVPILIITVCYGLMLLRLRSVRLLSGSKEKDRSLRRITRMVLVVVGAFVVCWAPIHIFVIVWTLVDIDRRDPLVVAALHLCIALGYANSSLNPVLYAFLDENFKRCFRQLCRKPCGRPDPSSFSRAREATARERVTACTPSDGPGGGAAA

Q: `COCCOCCOCCO[C@H]1CC[C@@]2(O)[C@H]3Cc4ccc(O)c5c4[C@@]2(CCN3CC2CCC2)C1O5` (some centres unmarked) [6-O-mPEG3-Nalbuphine, 6-O-mPEG3-nalbuphine] was tested. Which “effect at the delta opioid receptor” value did it give?
A: no effect

Each molecule was assayed against T1, cloned human kappa opioid receptor (Homo sapiens, UniProt P41145) (assay: cell-based). Conditions: not given.
T1 construct: expressed in transfected cells; host or cells: CHO cells
T1 sequence (P41145 whole entry): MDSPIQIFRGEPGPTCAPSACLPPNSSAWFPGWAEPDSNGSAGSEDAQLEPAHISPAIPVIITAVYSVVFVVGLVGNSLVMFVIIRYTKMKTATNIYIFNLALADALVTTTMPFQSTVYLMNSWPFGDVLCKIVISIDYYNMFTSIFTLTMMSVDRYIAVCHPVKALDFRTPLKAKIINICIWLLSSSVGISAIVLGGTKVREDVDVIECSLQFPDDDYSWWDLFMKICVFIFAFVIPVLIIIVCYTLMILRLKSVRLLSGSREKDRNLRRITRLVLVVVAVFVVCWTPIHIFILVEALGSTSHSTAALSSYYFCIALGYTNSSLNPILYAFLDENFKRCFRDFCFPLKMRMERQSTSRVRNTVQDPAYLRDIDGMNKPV
Experimental: The efficacy of the various PEG-opioid conjugates was measured by their ability to inhibit cAMP formation following receptor activation. Studies were conducted in CHO cells heterologously expressing the cloned human mu, kappa or delta opioid receptors. cAMP was measured using a cAMP HiRange homogenous time-resolved fluorescence assay (HTRF Assay), that is based on a competitive immunoassay principle (Cisbio, Cat. #62AM6PEC).
Briefly, suspensions of cells expressing either the mu, kappa or delta opioid receptors were prepared in buffer containing 0.5 mM isobutyl-methyl xanthine (IBMX). […] EC50 values were calculated for each compound from a sigmoidal dose-response plot of concentrations versus maximum response. To determine if the compounds behaved as full or partial agonists in the system, the maximal response at the highest tested concentrations of compounds were compared to that produced by a known full agonist.

Q: With `COc1ccc2c3c1O[C@H]1C(O)CC[C@@]4(O)[C@@H](C2)N(C)CC[C@]314` (stereo partly drawn) [Hydroxycodone, α-6-hydroxycodone, reference compound] as the molecule, how does the EC50 read?
A: > 500 µM

Q: `COCCOCCOCCOCCO[C@H]1CC[C@@]2(O)[C@H]3Cc4ccc(OC)c5c4[C@@]2(CCN3C)[C@H]1O5` [α-6-mPEG4-O-Hydroxycodone, α-6-mPEG4-O-hydroxycodone] was tested. Which EC50 did it give?
A: > 500 µM

Q: How did the EC50 turn out when α-6-mPEG1-O-codeine was run?
A: > 500 µM

Q: With α-6-mPEG4-O-codeine as the molecule, how does the EC50 read?
A: > 500 µM

Q: Which EC50 does the source give for α-6-mPEG5-O-codeine here?
A: > 500 µM

Q: α-6-mPEG6-O-codeine was tested. Which EC50 did it give?
A: > 500 µM

Same assay, conditions: inhibition of cAMP formation; 3 μM forskolin; tested upto 500 μM

Q: `COCCO[C@H]1CC[C@@]2(O)[C@H]3Cc4ccc(OC)c5c4[C@@]2(CCN3C)[C@H]1O5` [α-6-mPEG1-O-Hydroxycodone, α-6-mPEG1-O-hydroxycodone] was tested. Which EC50 did it give?
A: > 500 µM

Q: With `COCCOCCO[C@H]1CC[C@@]2(O)[C@H]3Cc4ccc(OC)c5c4[C@@]2(CCN3C)[C@H]1O5` [α-6-mPEG2-O-Hydroxycodone, α-6-mPEG2-O-hydroxycodone] as the molecule, how does the EC50 read?
A: > 500 µM

Q: `COCCOCCOCCO[C@H]1CC[C@@]2(O)[C@H]3Cc4ccc(OC)c5c4[C@@]2(CCN3C)[C@H]1O5` [α-6-mPEG3-O-Hydroxycodone, α-6-mPEG3-O-hydroxycodone] was tested. Which EC50 did it give?
A: > 500 µM

Q: `COCCOCCOCCOCCOCCO[C@H]1CC[C@@]2(O)[C@H]3Cc4ccc(OC)c5c4[C@@]2(CCN3C)[C@H]1O5` [α-6-mPEG5-O-Hydroxycodone, α-6-mPEG5-O-hydroxycodone] was tested. Which EC50 did it give?
A: > 500 µM

Q: Which EC50 does the source give for `COCCOCCOCCOCCOCCOCCO[C@H]1CC[C@@]2(O)[C@H]3Cc4ccc(OC)c5c4[C@@]2(CCN3C)[C@H]1O5` [α-6-mPEG6-O-Hydroxycodone, α-6-mPEG6-O-hydroxycodone] here?
A: > 500 µM

Q: For `COCCOCCOCCOCCOCCOCCOCCO[C@H]1CC[C@@]2(O)[C@H]3Cc4ccc(OC)c5c4[C@@]2(CCN3C)[C@H]1O5` [α-6-mPEG7-O-Hydroxycodone, α-6-mPEG7-O-hydroxycodone], which EC50 is on record?
A: > 500 µM

Q: With `COCCOCCOCCOCCOCCOCCOCCOCCOCCO[C@H]1CC[C@@]2(O)[C@H]3Cc4ccc(OC)c5c4[C@@]2(CCN3C)[C@H]1O5` [α-6-mPEG9-O-Hydroxycodone, α-6-mPEG9-O-hydroxycodone] as the molecule, how does the EC50 read?
A: > 500 µM
